The values below come from paper PMC4691061, “Repositioning of Thiourea-Containing Drugs as Tyrosinase Inhibitors” (International Journal of Molecular Sciences, 2015).

Each structure is given as a SMILES string. Read-outs that look alike come from different tables or passages of the source.

One series addresses tyrosinase. As to conditions: cited from earlier work.
The target in series [1] is T1, mushroom tyrosinase (Agaricus bisporus, UniProt C7FF04). As to the kind of experiment: Kinetics of enzyme inhibition (Michaelis-Menten, nonlinear fitting, F-statistics). The series is classed as biochemical. To be noted: for Mechanism: model selected by F-statistics among competitive, uncompetitive, non-competitive, mixed.
T1 sequence (C7FF04 1-392): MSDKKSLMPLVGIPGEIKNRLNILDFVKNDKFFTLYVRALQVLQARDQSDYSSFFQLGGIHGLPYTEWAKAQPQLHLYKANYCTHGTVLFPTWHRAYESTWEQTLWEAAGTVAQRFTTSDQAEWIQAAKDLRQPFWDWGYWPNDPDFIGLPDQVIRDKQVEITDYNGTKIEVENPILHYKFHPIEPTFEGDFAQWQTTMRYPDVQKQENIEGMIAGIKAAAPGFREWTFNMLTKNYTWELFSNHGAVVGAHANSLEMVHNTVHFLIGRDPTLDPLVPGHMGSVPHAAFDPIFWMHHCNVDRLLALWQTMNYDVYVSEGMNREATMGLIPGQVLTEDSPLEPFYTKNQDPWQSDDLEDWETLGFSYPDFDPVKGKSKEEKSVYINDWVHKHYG
For series [2], the system named is B16F10 cells. As to the kind of experiment: Melanin content assay (IBMX-stimulated). The series is classed as cell-based, murine. To be noted: for activity at 20 µM: Mus musculus.
For another series, the target named is T2, mammalian tyrosinase (Mus musculus, UniProt P11344).
T2 construct: host or cells: B16F10 murine melanoma cells (lysate supernatant)
T2 sequence (P11344 19-533): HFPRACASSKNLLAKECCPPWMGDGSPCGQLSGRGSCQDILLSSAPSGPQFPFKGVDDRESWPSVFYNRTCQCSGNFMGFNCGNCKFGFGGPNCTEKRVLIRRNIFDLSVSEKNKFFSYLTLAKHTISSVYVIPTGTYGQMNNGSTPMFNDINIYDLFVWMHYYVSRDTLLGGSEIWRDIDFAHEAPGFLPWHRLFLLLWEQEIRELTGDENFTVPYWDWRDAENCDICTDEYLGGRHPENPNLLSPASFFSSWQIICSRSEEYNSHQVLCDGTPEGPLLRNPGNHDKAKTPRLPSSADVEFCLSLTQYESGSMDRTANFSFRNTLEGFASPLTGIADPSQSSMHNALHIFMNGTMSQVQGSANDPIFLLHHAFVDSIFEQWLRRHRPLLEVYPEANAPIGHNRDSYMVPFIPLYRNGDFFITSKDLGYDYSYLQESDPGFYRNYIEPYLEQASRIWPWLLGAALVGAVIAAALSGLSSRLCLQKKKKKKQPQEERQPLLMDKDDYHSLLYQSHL
As to the kind of experiment: Tyrosinase enzyme assay with B16F10 cell lysates. In kind it is biochemical, murine. To be noted: for Cell Lysate (%): B16F10 cell lysates, DOPA substrate, absence of inhibitor = 100%; for inhibition of mammalian tyrosinase (in words): cell extracts of B16F10 cells.

In series [3] the test system is B16F10 cells. As to the kind of experiment: MTT cell viability assay. As to conditions: for MTT (%): 20 µM, mean ± SD, triplicate. Background: Tetrazolium assays rely on reduction of a dye to a coloured formazan, in cell work by metabolically active cells.
The target in series [4] is T1, mushroom tyrosinase. The series is described as follows: Mushroom tyrosinase enzyme activity inhibition assay. To be noted: for LE (ligand efficiency): 1.4 × (−log10IC50)/N, N = number of non-hydrogen atoms; for inhibition of tyrosinase enzyme activity (in words): concentration-dependent profiles, urea, thiourea, selenourea compared without DMSO; for inhibition of tyrosinase (in words): at 300 μM. In kind it is biochemical.

Where [5] appears, read: BindingDB-registered value, read-out: IC50 of closest known inhibitor.
Where [6] appears, read: 20 μM, B16F10 cells, IBMX 100 μM.
The mark [7] stands for this setting: B16-F10, 20 µM, B16F10 cells, IBMX 100 μM, absence of inhibitor = 100%, read-out: Melanin Content (%).
Where [8] appears, read: mushroom tyrosinase, 675 μM L-tyrosine as substrate, 5% DMSO, read-out: IC50.
[9] abbreviates: Ki for competitive, Kic for non-competitive model, nonlinear data fitting, read-out: Ki or Kic.

For orientation: IC50 means the concentration that gives 50% inhibition. Take `NC(=S)NN=Cc1ccc(F)cc1` [C00010, 4-fluorobenzaldehyde thiosemicarbazone]: at tyrosinase (setting [5]), the IC50 was 11 µM.

For the compound `NC(=S)NN=C1CCCC1` [C00011, cyclopentanone thiosemicarbazone], on tyrosinase (setting [5]), the IC50 was 0.17 µM.

Usually Ki stands for the dissociation constant of the complex between target and ligand, obtained from inhibition or displacement. As for `Nn1c(-c2ccncc2)n[nH]c1=S` [C00012], on tyrosinase (BindingDB-registered value, column headed IC50, footnote says Ki, read-out: Ki of closest known inhibitor), the inhibitory constant (Ki) was 1000 nM.

On to `O=c1[nH]c(=S)[nH]c(O)c1Cc1ccc(O)cc1` [C00013], for which the IC50 on tyrosinase (setting [5]) is 70 µM; at tyrosinase (known tyrosinase inhibitor, read-out: IC50) it was 70 µM.

For `CCCCOCCOc1ccc(Cc2c(O)[nH]c(=S)[nH]c2=O)cc1` [C00014], the IC50 on tyrosinase (setting [5]) was 179 µM.

For `NC(=S)Nc1ccccc1` [compound 1, Phenylthiourea], the figures for the Mechanism entry on mushroom tyrosinase [1] and on mushroom tyrosinase [1] (listed as PTU) were “Competitive” and “competitive inhibitors”, respectively. Also, the “decrease of melanin content” value with B16F10 cells [2] (setting [6]) is 40%. Also, the activity at 20 µM in the series with B16F10 cells [2] (B16-F10, read-out: Melanin Content (%)) was found to be 59 ± 7%. For the same compound, on mammalian tyrosinase, the “Cell Lysate (%)” value came to 5 ± 1%. For the same compound, the “inhibition mechanism (reported)” value in the series on tyrosinase was “competitive inhibitors”. Besides, the “MTT (%)” value in the series on B16F10 cells [3] is on record as 113 ± 10%.

Regarding `O=c1cc(CO)occ1O` [compound 2, Kojic acid], the “decrease of melanin content” value in the series with B16F10 cells [2] (setting [6]) is less than 5%. In addition, in the series with B16F10 cells [2] (setting [7]), the activity at 20 µM came out at 108 ± 11%. The “inhibition mechanism (reported)” value in the series with tyrosinase is given as “competitive inhibitors”. Besides, the “MTT (%)” value with B16F10 cells [3] was 114 ± 10%.

Consider `CC(=O)Nc1ccc(/C=N/NC(N)=S)cc1` [compound 3, Thioacetazone], for which, at mushroom tyrosinase [4], the half-maximal inhibitory concentration (IC50) is 14 µM and the “LE (ligand efficiency)” value worked out at 0.43. Besides, at mushroom tyrosinase [1], affinity was put at a Ki of 18 µM and the Mechanism entry is listed as “Non-competitive”. In addition, in the series on B16F10 cells [2] (setting [7]), the activity at 20 µM was 102 ± 10%. On mammalian tyrosinase, the “Cell Lysate (%)” value came to 74 ± 7% and the “inhibition of mammalian tyrosinase (in words)” value is on record as “significantly inhibited the function of tyrosinase”. Further, the “MTT (%)” value with B16F10 cells [3] was found to be 95 ± 15%.

Regarding `N=C(N)NN=C1C=CC(=NNC(N)=S)C=C1` [compound 4, Ambazone], on mushroom tyrosinase [4], the IC50 came out at 15 µM and the “LE (ligand efficiency)” value is recorded as 0.42. Also, on mushroom tyrosinase [1], the Ki amounted to 9 µM and the Mechanism result was “Non-competitive”. The “effect on melanin content (in words)” value with B16F10 cells [2] (20 μM, B16F10 cells) is “decreased melanin content”. Moreover, in the series on B16F10 cells [2] (setting [6]), the “decrease of melanin content” value was determined as 20%. Besides, the activity at 20 µM in the series on B16F10 cells [2] (setting [7]) was determined as 80 ± 11%. On mammalian tyrosinase, the “Cell Lysate (%)” value worked out at 87 ± 9% and the “inhibition of mammalian tyrosinase (in words)” value is reported as “significantly inhibited the function of tyrosinase”. In the series on B16F10 cells [3], the “MTT (%)” value was 95 ± 12%. Also, in the series on B16F10 cells [3] (up to 20 μM), the “cytotoxicity (in words)” value is recorded as “without causing cellular toxicity”.

As to `Cn1cc[nH]c1=S` [compound 5, Methimazole], the 50% inhibitory concentration (IC50) on mushroom tyrosinase [4] (setting [8]) came out at 94 µM. Further, the Ki at mushroom tyrosinase [1] (setting [9]) turned out to be 73 µM. Moreover, the Mechanism entry on mushroom tyrosinase [1] is recorded as “Non-competitive”; on mushroom tyrosinase [1] (listed as methimazole) it was “non-competitive inhibitor”. The activity at 20 µM in the series with B16F10 cells [2] (setting [7]) amounted to 104 ± 12%. In addition, the “Cell Lysate (%)” value on mammalian tyrosinase is reported as 93 ± 10%. The “inhibition of mammalian tyrosinase (in words)” value at mammalian tyrosinase is recorded as “limited”. Moreover, the “inhibition mechanism (reported)” value in the series on tyrosinase is listed as “mixed inhibitor”. Besides, in the series with B16F10 cells [3], the “MTT (%)” value came to 100 ± 9%.

For `CCOC(=O)n1ccn(C)c1=S` [compound 6, Carbimazole], the “inhibition of tyrosinase enzyme activity (in words)” value on mushroom tyrosinase [4] is reported as “did not inhibit tyrosinase”. Besides, the IC50 at mushroom tyrosinase [4] (setting [8]) was greater than 2000 µM.

On to `O=c1cc[nH]c(=S)[nH]1` [compound 7, Thiouracil], for which, on mushroom tyrosinase [4], the midpoint of inhibition, the IC50, lay at 215 µM and the “LE (ligand efficiency)” value is recorded as 0.64. In addition, at mushroom tyrosinase [1], the Mechanism entry is on record as “Non-competitive”. In addition, the activity at 20 µM in the series on B16F10 cells [2] (setting [7]) was found to be 106 ± 14%. Also, at mammalian tyrosinase, the “Cell Lysate (%)” value came out at 79 ± 9% and the “inhibition of mammalian tyrosinase (in words)” value is “significantly inhibited the function of tyrosinase”. In the series on B16F10 cells [3], the “MTT (%)” value stood at 99 ± 10%.

Regarding `Cc1cc(=O)[nH]c(=S)[nH]1` [compound 8, Methylthiouracil], the “LE (ligand efficiency)” value on mushroom tyrosinase [4] is given as 0.56. For the same compound, at mushroom tyrosinase [4] (setting [8]), the IC50 turned out to be 266 µM. The inhibition constant Ki at mushroom tyrosinase [1] (setting [9]) was 170 µM. Besides, the Mechanism entry on mushroom tyrosinase [1] is “Non-competitive”. Further, the activity at 20 µM in the series on B16F10 cells [2] (setting [7]) stood at 102 ± 14%. Further, on mammalian tyrosinase, the “Cell Lysate (%)” value is 78 ± 10% and the “inhibition of mammalian tyrosinase (in words)” value was “significantly inhibited the function of tyrosinase”. Besides, the “MTT (%)” value in the series with B16F10 cells [3] worked out at 108 ± 10%.

As for `CCCc1cc(=O)[nH]c(=S)[nH]1` [compound 9, Propylthiouracil], the half-inhibitory concentration (IC50) at mushroom tyrosinase [4] was determined as 375 µM. In addition, on mushroom tyrosinase [1], affinity was put at a Ki of 196 µM and the Mechanism result is recorded as “Non-competitive”. Also, in the series with B16F10 cells [2] (setting [7]), the activity at 20 µM turned out to be 102 ± 10%. On mammalian tyrosinase, the “Cell Lysate (%)” value worked out at 77 ± 9% and the “inhibition of mammalian tyrosinase (in words)” value is recorded as “significantly inhibited the function of tyrosinase”. In the series with B16F10 cells [3], the “MTT (%)” value was determined as 102 ± 12%.

Turning to `CNC(=S)NC` [dimethylthiourea], on mushroom tyrosinase [4], the “inhibition of tyrosinase (in words)” value is “hardly inhibited tyrosinase” and the “inhibition of tyrosinase enzyme activity (in words)” value was “much weaker than thiourea”.

Regarding `CNC(N)=S` [monomethylthiourea], the “inhibition of tyrosinase enzyme activity (in words)” value against mushroom tyrosinase [4] is on record as “much weaker than thiourea”.

Take `N=C(N)[SeH]` [selenourea]: the “inhibition of tyrosinase enzyme activity (in words)” value at mushroom tyrosinase [4] was “no effect on activity”.

With `CN(C)C(=S)N(C)C` [tetramethylthiourea], on mushroom tyrosinase [4], the “inhibition of tyrosinase (in words)” value is listed as “hardly inhibited tyrosinase” and the “inhibition of tyrosinase enzyme activity (in words)” value is reported as “much weaker than thiourea”.

With `NNC(N)=S` [thiosemicarbazide], the “inhibition of tyrosinase enzyme activity (in words)” value at mushroom tyrosinase [4] is “much weaker than thiourea”.

Consider `NC(N)=S` [thiourea], for which the “inhibition of tyrosinase enzyme activity (in words)” value at mushroom tyrosinase [4] was “decreased tyrosinase enzyme activity in a concentration dependent manner”.

In the case of `CNC(=S)N(C)C` [trimethylthiourea], on mushroom tyrosinase [4], the “inhibition of tyrosinase (in words)” value was “hardly inhibited tyrosinase” and the “inhibition of tyrosinase enzyme activity (in words)” value is “much weaker than thiourea”.

`NC(N)=O` [urea]: on mushroom tyrosinase [4], the “inhibition of tyrosinase enzyme activity (in words)” value is listed as “no effect on activity”.
